Assay results reported in ChEMBL document CHEMBL1201862, “PubChem BioAssay data set” (2004).
“And” between values parts separate entries of the source, which are not always exact repeats. Equal values may be shown once.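 Grown in 96-well plates, cells were treated for 48 hours with each compound at five concentrations. Insufficient inhibition: endpoint recorded as highest concentration tested. Abbreviation: GI50, concentration required for 50% inhibition of growth.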 The source made the active and inactive calls. No stated cut-off is given here; in the data, active = GI50 up to about 1.1 µM and inactive = higher.

Legend:
Experiment in all cases: NCI-60 cell line screen, 48 h
A549 = test system: A549
COLO 205 = test system: COLO 205
HOP-62 = test system: HOP-62
IGROV-1 = test system: IGROV-1
KM12 = test system: KM12
NCI-H23 = test system: NCI-H23
OVCAR-3 = test system: OVCAR-3
OVCAR-4 = test system: OVCAR-4
OVCAR-8 = test system: OVCAR-8
RPMI-8226 = test system: RPMI-8226
SF-268 = test system: SF-268
SF-295 = test system: SF-295
SK-MEL-2 = test system: SK-MEL-2
SK-OV-3 = test system: SK-OV-3
SN12C = test system: SN12C
U-251 = test system: U-251
UACC-62 = test system: UACC-62
UO-31 = test system: UO-31
NCI-H460 = test system: NCI-H460
UACC-257 = test system: UACC-257

Measured: GI50

CC(C)N(C(=O)C1(O)c2ccccc2C=Cc2ccccc21)C(C)C
inactive: A549 19.9 µM | COLO 205 19.3 µM | HOP-62 19.2 µM | IGROV-1 14.8 µM | KM12 22.9 µM | NCI-H23 17.6 µM | OVCAR-3 16.9 µM | OVCAR-4 22.5 µM | OVCAR-8 16.9 µM | RPMI-8226 35.9 µM | SF-268 21.5 µM | SF-295 17.8 µM | SK-MEL-2 17.1 µM | SK-OV-3 25.3 µM | SN12C 16.3 µM | U-251 16.8 µM | UACC-62 15.4 µM | UO-31 21.1 µM

CCCCCCCCCCCCNC(=S)OC
inactive: A549 17.5 µM | HOP-62 18 µM | IGROV-1 11.5 µM | KM12 15.4 µM | NCI-H23 17.8 µM | NCI-H460 17.3 µM | OVCAR-4 19.4 µM | OVCAR-8 15.8 µM | RPMI-8226 7.98 µM | SF-268 16.6 µM | SF-295 19.4 µM | SK-MEL-2 16.8 µM | SK-OV-3 16 µM | SN12C 14.3 µM | U-251 16 µM | UACC-257 16.7 µM | UACC-62 16.1 µM | UO-31 4.13 µM

Cc1ccc(O)c(C(c2ccc([N+](=O)[O-])cc2)c2cc(C)ccc2O)c1
inactive: A549 9.66 µM | COLO 205 20.7 µM | HOP-62 10.8 µM | IGROV-1 11 µM | KM12 7.35 µM | NCI-H23 7.93 µM | OVCAR-3 6.32 µM | OVCAR-4 10.5 µM | OVCAR-8 11.7 µM | RPMI-8226 10.1 µM | SF-268 5.57 µM | SF-295 14.5 µM | SK-MEL-2 11.5 µM | SK-OV-3 15.1 µM | SN12C 13.7 µM | U-251 16.8 µM | UACC-257 14.6 µM | UACC-62 7.4 µM | UO-31 3.27 µM

O=C(O)C(=C\c1ccc2c(c1)OCO2)/C(=C/c1ccc2c(c1)OCO2)C(=O)O
inactive: COLO 205 > 100 µM | HOP-62 > 100 µM | IGROV-1 > 100 µM | KM12 > 100 µM | NCI-H23 > 100 µM | NCI-H460 > 100 µM | OVCAR-3 > 100 µM | OVCAR-4 > 100 µM | OVCAR-8 > 100 µM | RPMI-8226 > 100 µM | SF-295 > 100 µM | SK-MEL-2 > 100 µM | SK-OV-3 > 100 µM | SN12C > 100 µM | U-251 > 100 µM | UACC-257 > 100 µM | UACC-62 > 100 µM | UO-31 > 100 µM

CC1(CO)OC(n2cnc3c(N)ncnc32)C(O)C1O (stereo not given)
inactive: A549 > 100 µM | COLO 205 > 100 µM | HOP-62 > 100 µM | IGROV-1 > 100 µM | KM12 > 100 µM | NCI-H23 > 100 µM | NCI-H460 > 100 µM | OVCAR-3 > 100 µM | OVCAR-4 > 100 µM | OVCAR-8 > 100 µM | RPMI-8226 > 100 µM | SF-268 > 100 µM | SF-295 > 100 µM | SK-MEL-2 > 100 µM | SK-OV-3 > 100 µM | SN12C > 100 µM | U-251 > 100 µM | UACC-62 > 100 µM | UO-31 > 100 µM

CCCCCCC1NN(C(C)=O)C(CCCCCC)NN1C(C)=O (stereo not given)
inactive: COLO 205 > 100 µM | HOP-62 > 100 µM | IGROV-1 > 100 µM | KM12 > 100 µM | NCI-H23 > 100 µM | NCI-H460 17.7 µM | OVCAR-3 > 100 µM | OVCAR-4 > 100 µM | OVCAR-8 > 100 µM | RPMI-8226 24 µM | SF-295 > 100 µM | SK-MEL-2 > 100 µM | SK-OV-3 > 100 µM | SN12C > 100 µM | U-251 > 100 µM | UACC-257 > 100 µM | UACC-62 > 100 µM | UO-31 > 100 µM

CC/N=C(\N)CSS(=O)(=O)O
inactive: A549 > 100 µM | COLO 205 > 100 µM | HOP-62 > 100 µM | IGROV-1 > 100 µM | KM12 > 100 µM | NCI-H23 > 100 µM | NCI-H460 77.3 µM | OVCAR-3 > 100 µM | OVCAR-4 > 100 µM | OVCAR-8 > 100 µM | RPMI-8226 > 100 µM | SF-268 > 100 µM | SF-295 > 100 µM | SK-MEL-2 > 100 µM | SK-OV-3 > 100 µM | SN12C > 100 µM | U-251 71.1 µM | UACC-257 > 100 µM | UACC-62 > 100 µM

COc1ccc2c(c1)OC[C@@H]1c3cc(O)c(OCc4ccccc4)cc3O[C@H]21
inactive: A549 26.2 µM | COLO 205 27.9 µM | HOP-62 48 µM | IGROV-1 26.5 µM | KM12 30.2 µM | NCI-H23 16.4 µM | NCI-H460 17.3 µM | OVCAR-3 38 µM | OVCAR-4 16.6 µM | OVCAR-8 29.5 µM | RPMI-8226 10.2 µM | SF-268 28.3 µM | SF-295 28.8 µM | SK-MEL-2 17.3 µM | SK-OV-3 17.3 µM | U-251 23.7 µM | UACC-257 17.9 µM | UACC-62 18.1 µM | UO-31 20.1 µM

N/C(=N\O)N/N=C/c1cc2c(cc1Cl)OCO2
inactive: A549 36.8 µM | COLO 205 33.3 µM | HOP-62 36.3 µM | IGROV-1 43 µM | KM12 29.5 µM | NCI-H23 58.1 µM | NCI-H460 34.1 µM | OVCAR-4 52 µM | OVCAR-8 40.6 µM | RPMI-8226 24 µM | SF-268 25.4 µM | SF-295 22.9 µM | SK-MEL-2 32.1 µM | SK-OV-3 26.4 µM | SN12C 59 µM | U-251 34.5 µM | UACC-257 42.3 µM | UACC-62 > 50.4 µM | UO-31 21.4 µM

O=C1OC(c2ccccc2)=N/C1=C\c1ccccc1
inactive: A549 > 100 µM | HOP-62 29.1 µM and 25.8 µM | IGROV-1 55.5 µM and 37.6 µM | KM12 34.8 µM and 26.6 µM | NCI-H23 > 100 µM | NCI-H460 45.9 µM and 43.9 µM | OVCAR-3 24 µM | OVCAR-4 86.5 µM and 49.7 µM | OVCAR-8 38.8 µM and 32.6 µM | RPMI-8226 30.5 µM and 22.5 µM | SF-295 69 µM and 68.2 µM | SK-MEL-2 17.8 µM | SK-OV-3 > 100 µM | SN12C 66.4 µM | U-251 32.1 µM and 35.1 µM | UACC-257 41.4 µM and 25.9 µM | UACC-62 > 100 µM | UO-31 > 100 µM

COc1ccc2c(c1)-c1oc3ccccc3c(=O)c1CO2
inactive: A549 43 µM | COLO 205 31.4 µM | HOP-62 57.4 µM | IGROV-1 25.7 µM | KM12 39.5 µM | NCI-H23 89.5 µM | OVCAR-3 31.3 µM | OVCAR-8 39.1 µM | RPMI-8226 20.8 µM | SF-268 25 µM | SF-295 69 µM | SK-MEL-2 26.3 µM | SK-OV-3 35.4 µM | SN12C 32.7 µM | U-251 28.7 µM | UACC-257 31.8 µM | UACC-62 38.1 µM | UO-31 22.9 µM

c1ccc(C2N3CCCCC3[C@@H]3c4[nH]c5ccccc5c4CCN23)cc1 (stereo not given in full)
inactive: A549 > 100 µM | COLO 205 23.3 µM | HOP-62 > 100 µM | IGROV-1 > 100 µM | NCI-H23 > 100 µM | NCI-H460 48.8 µM | OVCAR-3 > 100 µM | OVCAR-4 29.5 µM | OVCAR-8 > 100 µM | RPMI-8226 36.2 µM | SF-268 > 100 µM | SF-295 > 100 µM | SK-MEL-2 > 100 µM | SK-OV-3 > 100 µM | SN12C > 100 µM | U-251 > 100 µM | UACC-257 > 100 µM | UACC-62 48.3 µM | UO-31 70 µM

c1ccc(/N=C(\N2CCCCC2)N(CCN2CCCCC2)c2ccccc2)cc1
active: COLO 205 0.658 µM | IGROV-1 0.396 µM | NCI-H23 0.773 µM | NCI-H460 0.274 µM | OVCAR-3 0.401 µM | RPMI-8226 0.192 µM | SF-295 1.04 µM
inactive: A549 2.11 µM | HOP-62 1.43 µM | OVCAR-4 1.2 µM | OVCAR-8 2.01 µM | SK-MEL-2 1.76 µM | SK-OV-3 1.65 µM | SN12C 2.11 µM | U-251 1.39 µM | UACC-257 1.82 µM | UO-31 1.68 µM

CN(c1ccc(C(=O)c2ccc(N(C)S(C)(=O)=O)cc2)cc1)S(C)(=O)=O
inactive: A549 > 100 µM | COLO 205 > 100 µM | KM12 > 100 µM | NCI-H23 34.5 µM | NCI-H460 > 100 µM | OVCAR-4 > 100 µM | OVCAR-8 > 100 µM | RPMI-8226 > 100 µM | SF-268 > 100 µM | SF-295 78.2 µM | SK-MEL-2 > 100 µM | SK-OV-3 > 100 µM | SN12C > 100 µM | U-251 > 100 µM | UACC-257 48.9 µM | UACC-62 > 100 µM | UO-31 75.7 µM

CC1=C2c3ccccc3N(C(=O)/C=C/C(=O)O)[C@H]2[C@H]2C(=O)OC(=O)[C@H]2C1
inactive: A549 > 10 µM | COLO 205 > 10 µM | HOP-62 > 10 µM | IGROV-1 > 10 µM | KM12 > 10 µM | NCI-H23 > 10 µM | NCI-H460 > 10 µM | OVCAR-3 > 10 µM | OVCAR-4 > 10 µM | OVCAR-8 > 10 µM | RPMI-8226 > 10 µM | SF-268 > 10 µM | SF-295 > 10 µM | SK-MEL-2 > 10 µM | SK-OV-3 > 10 µM | SN12C > 10 µM | U-251 > 10 µM | UACC-62 > 10 µM | UO-31 > 10 µM
